The values that follow come from PMC7827406, “Structure–Activity Relationship (SAR) Study of Spautin-1 to Entail the Discovery of Novel NEK4 Inhibitors” (International Journal of Molecular Sciences, 2021).

Common to all, as to experiment: biochemical
Parameters in all cases: Eurofins KinaseProfiler full panel at Km ATP, residual kinase activity (%) relative to DMSO

One test addresses T1, DCAMKL2(h) (Homo sapiens, UniProt Q8N568).
T1 construct: gene DCLK2
T1 sequence (Q8N568 1-766): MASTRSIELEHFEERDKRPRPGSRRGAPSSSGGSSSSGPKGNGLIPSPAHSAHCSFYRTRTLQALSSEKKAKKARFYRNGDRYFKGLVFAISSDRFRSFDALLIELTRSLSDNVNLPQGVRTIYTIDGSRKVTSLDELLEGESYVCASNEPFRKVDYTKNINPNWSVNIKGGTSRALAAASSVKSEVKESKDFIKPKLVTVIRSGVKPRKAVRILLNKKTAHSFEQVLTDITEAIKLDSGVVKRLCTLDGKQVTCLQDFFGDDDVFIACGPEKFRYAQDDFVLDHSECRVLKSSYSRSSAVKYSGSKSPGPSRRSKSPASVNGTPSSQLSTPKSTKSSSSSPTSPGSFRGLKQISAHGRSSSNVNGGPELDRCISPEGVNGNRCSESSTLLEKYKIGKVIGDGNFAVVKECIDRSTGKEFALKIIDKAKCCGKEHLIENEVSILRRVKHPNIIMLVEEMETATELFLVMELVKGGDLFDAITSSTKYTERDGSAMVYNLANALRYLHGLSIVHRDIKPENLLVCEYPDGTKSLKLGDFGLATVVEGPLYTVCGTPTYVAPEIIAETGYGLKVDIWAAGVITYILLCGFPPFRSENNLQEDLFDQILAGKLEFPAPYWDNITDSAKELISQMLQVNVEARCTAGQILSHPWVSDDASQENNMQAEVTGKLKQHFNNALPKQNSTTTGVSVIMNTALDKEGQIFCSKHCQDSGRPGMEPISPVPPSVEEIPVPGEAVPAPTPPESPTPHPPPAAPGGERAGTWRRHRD
In short, it runs like this: (§1)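 Two 10 µM single-concentration screens were run: a competition-binding screen, in which DNA-tagged kinase bound to immobilized ligands was quantified by qPCR, and a radiometric activity panel at Km ATP. Each is expressed as residual kinase activity (%).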

The target in another test is T2, Aurora-B(h) (Homo sapiens, UniProt Q96GD4).
T2 construct: gene AURKB
In short, it runs like this:
as §1

The target of a further test is T3, cKit(D816H)(h) (Homo sapiens, UniProt P10721, D816H).
T3 construct: gene KIT
The method, boiled down: as §1

For a further test, the target named is PAK4(h) (Homo sapiens, UniProt O96013). The method, boiled down: as §1
The target of the next test is T4, MLK1(h) (Homo sapiens, UniProt P80192).
T4 construct: gene MAP3K9
The method, boiled down: as §1

The next test deals with T5, ChaK1(h) (Homo sapiens, UniProt Q96QT4).
T5 construct: gene TRPM7
The method, boiled down:
as §1

Setting [1] is: read-out: Residual activity (%) 5at.
The mark [2] stands for this setting: read-out: Residual activity (%) 5ay.
Setting [3] is: read-out: Residual activity (%) 5as.
Where [4] appears, read: read-out: Residual activity (%) Spautin-1 5aa.

Read-outs that look alike come from different tables or passages of the source.

T2 sequence (Q96GD4 whole entry): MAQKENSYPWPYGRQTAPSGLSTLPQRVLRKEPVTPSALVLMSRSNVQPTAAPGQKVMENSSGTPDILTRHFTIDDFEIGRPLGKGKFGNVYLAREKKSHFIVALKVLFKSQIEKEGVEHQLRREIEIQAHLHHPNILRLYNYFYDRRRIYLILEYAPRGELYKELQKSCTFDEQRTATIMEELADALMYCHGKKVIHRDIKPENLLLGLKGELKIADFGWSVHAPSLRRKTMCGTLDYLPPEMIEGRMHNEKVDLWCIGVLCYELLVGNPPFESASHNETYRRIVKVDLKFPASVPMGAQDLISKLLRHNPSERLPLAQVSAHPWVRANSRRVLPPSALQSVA
T5 sequence (Q96QT4 whole entry): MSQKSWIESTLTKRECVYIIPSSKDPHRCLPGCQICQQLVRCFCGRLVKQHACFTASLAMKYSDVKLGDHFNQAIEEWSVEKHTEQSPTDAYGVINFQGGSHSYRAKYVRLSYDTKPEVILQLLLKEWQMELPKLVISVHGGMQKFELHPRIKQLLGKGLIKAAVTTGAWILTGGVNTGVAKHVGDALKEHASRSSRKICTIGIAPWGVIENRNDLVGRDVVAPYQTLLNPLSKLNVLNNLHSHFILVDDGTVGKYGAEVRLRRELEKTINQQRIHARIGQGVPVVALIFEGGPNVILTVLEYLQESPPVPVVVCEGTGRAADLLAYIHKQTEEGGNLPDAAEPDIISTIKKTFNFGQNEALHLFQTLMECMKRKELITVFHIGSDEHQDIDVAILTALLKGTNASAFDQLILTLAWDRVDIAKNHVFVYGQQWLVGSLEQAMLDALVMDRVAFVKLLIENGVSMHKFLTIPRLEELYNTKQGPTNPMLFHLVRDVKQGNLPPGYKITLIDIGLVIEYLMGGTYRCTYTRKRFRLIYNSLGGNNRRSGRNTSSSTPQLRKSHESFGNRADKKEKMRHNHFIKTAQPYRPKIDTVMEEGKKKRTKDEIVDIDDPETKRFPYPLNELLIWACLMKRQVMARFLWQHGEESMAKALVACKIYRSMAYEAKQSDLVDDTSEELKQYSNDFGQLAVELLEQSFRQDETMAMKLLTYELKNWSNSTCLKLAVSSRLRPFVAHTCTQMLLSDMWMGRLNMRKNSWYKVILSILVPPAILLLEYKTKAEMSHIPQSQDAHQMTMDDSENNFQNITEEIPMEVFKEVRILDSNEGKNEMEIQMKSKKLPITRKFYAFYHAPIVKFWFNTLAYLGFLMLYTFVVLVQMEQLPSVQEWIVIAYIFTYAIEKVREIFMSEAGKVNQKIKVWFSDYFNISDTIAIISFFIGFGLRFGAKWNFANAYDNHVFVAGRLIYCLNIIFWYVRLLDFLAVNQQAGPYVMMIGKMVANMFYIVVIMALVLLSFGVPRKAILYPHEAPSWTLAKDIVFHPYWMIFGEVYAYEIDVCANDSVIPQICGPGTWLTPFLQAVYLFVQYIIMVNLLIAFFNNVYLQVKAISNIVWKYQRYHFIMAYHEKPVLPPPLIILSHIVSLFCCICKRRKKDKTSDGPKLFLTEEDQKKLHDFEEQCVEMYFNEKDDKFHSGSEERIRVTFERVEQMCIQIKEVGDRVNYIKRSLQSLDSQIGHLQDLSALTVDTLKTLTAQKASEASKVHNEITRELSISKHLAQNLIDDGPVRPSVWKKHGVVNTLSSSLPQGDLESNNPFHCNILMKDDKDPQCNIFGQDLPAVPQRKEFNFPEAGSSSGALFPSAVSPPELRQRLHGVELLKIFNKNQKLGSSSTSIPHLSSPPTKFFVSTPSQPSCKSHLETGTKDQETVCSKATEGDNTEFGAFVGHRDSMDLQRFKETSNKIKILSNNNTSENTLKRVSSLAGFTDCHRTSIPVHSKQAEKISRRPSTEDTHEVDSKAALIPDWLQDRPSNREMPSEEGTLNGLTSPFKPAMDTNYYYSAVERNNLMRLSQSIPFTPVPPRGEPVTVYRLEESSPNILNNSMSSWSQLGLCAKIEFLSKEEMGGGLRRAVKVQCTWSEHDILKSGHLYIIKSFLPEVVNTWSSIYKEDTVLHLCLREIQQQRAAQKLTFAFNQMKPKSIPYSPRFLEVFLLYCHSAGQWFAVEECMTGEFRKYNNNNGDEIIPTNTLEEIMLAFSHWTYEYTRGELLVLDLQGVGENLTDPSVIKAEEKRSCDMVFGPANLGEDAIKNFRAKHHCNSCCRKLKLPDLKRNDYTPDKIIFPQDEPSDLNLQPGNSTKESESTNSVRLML
Sequence of PAK4(h) (O96013 whole entry): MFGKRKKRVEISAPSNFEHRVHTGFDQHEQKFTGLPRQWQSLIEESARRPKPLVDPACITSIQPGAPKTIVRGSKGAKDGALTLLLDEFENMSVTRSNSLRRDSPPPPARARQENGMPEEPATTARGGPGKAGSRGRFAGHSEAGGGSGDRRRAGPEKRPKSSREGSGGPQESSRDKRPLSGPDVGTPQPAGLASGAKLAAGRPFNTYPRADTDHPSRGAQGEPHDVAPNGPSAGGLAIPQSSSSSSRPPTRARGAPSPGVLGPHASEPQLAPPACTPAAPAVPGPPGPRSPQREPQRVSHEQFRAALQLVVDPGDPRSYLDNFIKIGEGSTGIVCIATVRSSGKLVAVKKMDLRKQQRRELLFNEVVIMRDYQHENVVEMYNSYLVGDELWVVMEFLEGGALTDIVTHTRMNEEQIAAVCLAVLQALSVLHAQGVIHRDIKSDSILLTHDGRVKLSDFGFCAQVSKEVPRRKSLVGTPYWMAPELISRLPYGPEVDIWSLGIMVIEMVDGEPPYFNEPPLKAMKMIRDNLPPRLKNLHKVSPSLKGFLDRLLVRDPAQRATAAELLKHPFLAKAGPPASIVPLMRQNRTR
T4 sequence (P80192 whole entry): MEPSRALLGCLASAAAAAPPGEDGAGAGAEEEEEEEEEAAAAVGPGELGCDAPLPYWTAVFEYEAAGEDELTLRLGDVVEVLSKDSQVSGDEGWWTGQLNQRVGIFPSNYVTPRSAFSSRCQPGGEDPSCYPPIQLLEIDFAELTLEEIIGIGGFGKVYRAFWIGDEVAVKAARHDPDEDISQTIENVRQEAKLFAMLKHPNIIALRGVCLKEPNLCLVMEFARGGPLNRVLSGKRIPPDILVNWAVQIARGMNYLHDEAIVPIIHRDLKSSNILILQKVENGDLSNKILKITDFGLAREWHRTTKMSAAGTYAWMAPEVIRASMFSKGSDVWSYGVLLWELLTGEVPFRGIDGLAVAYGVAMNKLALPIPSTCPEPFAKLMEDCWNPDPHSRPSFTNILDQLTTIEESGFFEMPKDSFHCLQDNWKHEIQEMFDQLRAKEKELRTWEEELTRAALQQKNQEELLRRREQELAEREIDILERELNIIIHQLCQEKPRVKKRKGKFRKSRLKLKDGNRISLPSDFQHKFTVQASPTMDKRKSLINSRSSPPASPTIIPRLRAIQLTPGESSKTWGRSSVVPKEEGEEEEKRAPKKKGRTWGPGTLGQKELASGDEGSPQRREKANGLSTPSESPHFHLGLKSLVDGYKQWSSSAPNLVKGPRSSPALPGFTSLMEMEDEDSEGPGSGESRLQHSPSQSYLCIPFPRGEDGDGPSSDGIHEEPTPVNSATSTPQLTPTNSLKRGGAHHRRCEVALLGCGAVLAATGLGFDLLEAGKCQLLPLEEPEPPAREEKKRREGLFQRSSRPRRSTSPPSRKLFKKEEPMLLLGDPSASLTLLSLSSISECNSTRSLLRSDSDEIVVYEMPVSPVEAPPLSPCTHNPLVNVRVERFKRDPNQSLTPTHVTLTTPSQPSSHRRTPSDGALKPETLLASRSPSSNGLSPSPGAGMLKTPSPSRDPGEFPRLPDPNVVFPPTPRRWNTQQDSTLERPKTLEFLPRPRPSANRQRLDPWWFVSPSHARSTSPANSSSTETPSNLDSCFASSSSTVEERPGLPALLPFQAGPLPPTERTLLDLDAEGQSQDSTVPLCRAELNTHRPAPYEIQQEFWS
T3 sequence (P10721 whole entry D816H): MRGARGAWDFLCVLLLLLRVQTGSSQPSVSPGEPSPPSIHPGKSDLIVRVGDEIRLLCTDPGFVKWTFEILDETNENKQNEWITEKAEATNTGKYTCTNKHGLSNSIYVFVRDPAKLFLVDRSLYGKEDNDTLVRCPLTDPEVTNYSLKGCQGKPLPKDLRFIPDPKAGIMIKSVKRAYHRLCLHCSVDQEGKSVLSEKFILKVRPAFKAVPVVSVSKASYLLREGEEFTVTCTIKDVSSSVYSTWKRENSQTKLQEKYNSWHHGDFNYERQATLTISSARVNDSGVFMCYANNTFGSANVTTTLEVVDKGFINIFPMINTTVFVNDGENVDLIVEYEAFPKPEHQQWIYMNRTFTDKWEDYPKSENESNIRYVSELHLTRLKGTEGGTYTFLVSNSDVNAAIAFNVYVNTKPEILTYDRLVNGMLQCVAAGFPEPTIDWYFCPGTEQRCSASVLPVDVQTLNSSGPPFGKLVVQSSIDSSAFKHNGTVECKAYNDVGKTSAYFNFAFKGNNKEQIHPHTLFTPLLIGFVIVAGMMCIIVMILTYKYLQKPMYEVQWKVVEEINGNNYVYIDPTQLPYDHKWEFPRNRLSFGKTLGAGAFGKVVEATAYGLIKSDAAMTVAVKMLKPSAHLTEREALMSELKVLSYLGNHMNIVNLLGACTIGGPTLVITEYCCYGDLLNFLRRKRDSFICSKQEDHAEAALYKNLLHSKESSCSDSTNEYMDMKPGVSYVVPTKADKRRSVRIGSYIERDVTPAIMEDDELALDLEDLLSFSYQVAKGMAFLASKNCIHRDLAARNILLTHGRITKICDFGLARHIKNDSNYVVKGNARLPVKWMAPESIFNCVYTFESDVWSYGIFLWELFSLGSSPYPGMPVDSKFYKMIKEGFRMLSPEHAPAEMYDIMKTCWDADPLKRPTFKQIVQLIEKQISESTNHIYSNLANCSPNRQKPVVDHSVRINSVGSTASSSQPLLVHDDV

Consider `Fc1ccc2ncnc(NCCc3ccc(Cl)cc3)c2c1` [5at, N-[2-(4-Chlorophenyl)Ethyl]-6-Fluoro-4-Quinazolinamine], for which the remaining activity at 10 µM at DCAMKL2(h) (setting [1]) was 57%; at Aurora-B(h) (setting [1]), 48%; on cKit(D816H)(h) (setting [1]), 95%; on PAK4(h) (setting [1]), 90%; on MLK1(h) (setting [1]), 76%; at ChaK1(h) (setting [1]), 82%.

Regarding `COc1ccc2ncnc(Nc3cccc(F)c3)c2c1` [5ay, N-(3-Fluorophenyl)-6-Methoxy-4-Quinazolinamine], the remaining activity at 10 µM on DCAMKL2(h) (setting [2]) was 80%; at Aurora-B(h) (setting [2]), 59%; at cKit(D816H)(h) (setting [2]) it was 89%; at PAK4(h) (setting [2]) it was 83%; at MLK1(h) (setting [2]) it was 68%; at ChaK1(h) (setting [2]) it was 77%.

As for `Fc1ccc(CCNc2ncnc3ccc(F)cc23)cc1` [5as, 6-Fluoro-N-[2-(4-Fluorophenyl)Ethyl]-4-Quinazolinamine], the remaining activity at 10 µM turned out to be 64% at DCAMKL2(h) (setting [3]); 69% at Aurora-B(h) (setting [3]); 95% at cKit(D816H)(h) (setting [3]); 92% on PAK4(h) (setting [3]); 77% on MLK1(h) (setting [3]); 81% at ChaK1(h) (setting [3]).

Turning to `Fc1ccc(CNc2ncnc3ccc(F)cc23)cc1` [5aa, 6-Fluoro-N-(4-fluorobenzyl)-4-Quinazolinamine], the remaining activity at 10 µM stood at 81% at DCAMKL2(h) (setting [4]); 85% on Aurora-B(h) (setting [4]); 115% at cKit(D816H)(h) (setting [4]); 90% at PAK4(h) (setting [4]); 89% at MLK1(h) (setting [4]); 86% at ChaK1(h) (setting [4]).
